Results published in patent publication US9062043B2, “Fused tricyclic compounds as serine-threonine protein kinase and PARP modulators” (SENHWA BIOSCIENCES, INC., priority 2006, dated 2015).

Columns and labels:
[1] = biological target: recombinant human PIM-1 (Homo sapiens (Human), UniProt P11309); assay: PIM-1 assay (cell-free, radiometric); assay type: biochemical
Method: The reactions are incubated for 10 min at 30° C., quenched with 100 ul of 0.75% Phosphoric acid, then transferred to and filtered through a Phosphocellulose filter plate (Millipore). After washing each well 5 times with 0.75% Phosphoric acid, Scintilation fluid (15 ul) is added to each well. The residual radioactivity is measured using a […].

[2] = biological target: protein kinases (Homo sapiens, UniProt P00519); assay: Kinase inhibition, percentage of activity at 0.5 μM, standardized radiometric kinase assays; assay type: biochemical; conditions: Abl(h);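 also: each kinase tested separately, with activity read as 33P-labelled substrate protein captured on filters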
[3] = biological target: protein kinases (Homo sapiens, UniProt P50613); assay: as above; assay type: biochemical; conditions: CDK7/cyclinH/MAT1(h)
[4] = biological target: protein kinases (Homo sapiens, UniProt P36888, D835Y); assay: as above; assay type: biochemical; conditions: Flt3(D835Y)(h)
[5] = biological target: protein kinases (Homo sapiens, UniProt P04049); assay: as above; assay type: biochemical; conditions: c-RAF(h)
[6] = biological target: protein kinases (Homo sapiens, UniProt Q8IW41); assay: as above; assay type: biochemical; conditions: PRAK(h)
[7] = biological target: protein kinases (Homo sapiens, UniProt P35916); assay: as above; assay type: biochemical; conditions: Flt4(h)
[8] = biological target: protein kinases (Homo sapiens, UniProt P80192); assay: as above; assay type: biochemical; conditions: MLK1(h)
[9] = biological target: protein kinases (Homo sapiens, UniProt P06241); assay: as above; assay type: biochemical; conditions: Fyn(h)
[10] = biological target: protein kinases (Homo sapiens, UniProt Q9UEE5); assay: as above; assay type: biochemical; conditions: DRAK1(h)
[11] = biological target: protein kinases (Homo sapiens, UniProt P31749); assay: as above; assay type: biochemical; conditions: PKBα(h)
[12] = biological target: protein kinases (Homo sapiens, UniProt P35968); assay: as above; assay type: biochemical; conditions: KDR(h)
[13] = biological target: protein kinases (Homo sapiens, UniProt P07948); assay: as above; assay type: biochemical; conditions: Lyn(h)
[14] = biological target: protein kinases (Homo sapiens, UniProt P51955); assay: as above; assay type: biochemical; conditions: NEK2(h)
[15] = biological target: protein kinases (Homo sapiens, UniProt P10721, D816H); assay: as above; assay type: biochemical; conditions: cKit(D816H)(h)
[16] = biological target: protein kinases (Homo sapiens, UniProt Q9UM73); assay: as above; assay type: biochemical; conditions: ALK(h)
[17] = biological target: protein kinases (Homo sapiens, UniProt O15530); assay: as above; assay type: biochemical; conditions: PDK1(h)
[18] = biological target: protein kinases (Homo sapiens, UniProt Q13464); assay: as above; assay type: biochemical; conditions: ROCK-I(h)
[19] = biological target: protein kinases (Homo sapiens, UniProt Q9H4B4); assay: as above; assay type: biochemical; conditions: Plk3(h)
[20] = biological target: protein kinases (Homo sapiens, UniProt P06493); assay: as above; assay type: biochemical; conditions: CDK1/cyclinB(h)
[21] = biological target: protein kinases (Homo sapiens, UniProt Q92630); assay: as above; assay type: biochemical; conditions: DYRK2(h)
[22] = biological target: protein kinases (Homo sapiens, UniProt P08922); assay: as above; assay type: biochemical; conditions: Ros(h)
[23] = biological target: protein kinases (Homo sapiens, UniProt O00418); assay: as above; assay type: biochemical; conditions: eEF-2K(h)
[24] = biological target: protein kinases (Homo sapiens, UniProt P08069); assay: as above; assay type: biochemical; conditions: IGF-1R(h)
[25] = biological target: protein kinases (Homo sapiens, UniProt P11309); assay: as above; assay type: biochemical; conditions: Pim-1(h)
[26] = biological target: protein kinases (Homo sapiens, UniProt P07333); assay: as above; assay type: biochemical; conditions: Fms(h)
[27] = biological target: protein kinases (Homo sapiens, UniProt P54760); assay: as above; assay type: biochemical; conditions: EphB4(h)
[28] = biological target: protein kinases (Homo sapiens, UniProt Q06418); assay: as above; assay type: biochemical; conditions: Rse(h)
[29] = biological target: protein kinases (Homo sapiens, UniProt O14965); assay: as above; assay type: biochemical; conditions: Aurora-A(h)
[30] = biological target: protein kinases (Homo sapiens, UniProt P12931); assay: as above; assay type: biochemical; conditions: Src(1-530)(h)
[31] = biological target: protein kinases (Homo sapiens, UniProt O43318); assay: as above; assay type: biochemical; conditions: TAK1(h)
[32] = biological target: protein kinases (Homo sapiens, UniProt Q12866); assay: as above; assay type: biochemical; conditions: Mer(h)
[33] = biological target: protein kinases (Homo sapiens, UniProt Q9H422); assay: as above; assay type: biochemical; conditions: HIPK3(h)
[34] = biological target: protein kinases (Homo sapiens, UniProt Q15303); assay: as above; assay type: biochemical; conditions: ErbB4(h)
[35] = biological target: protein kinases (Homo sapiens, UniProt P09619); assay: as above; assay type: biochemical; conditions: PDGFRβ(h)
[36] = biological target: protein kinases (Homo sapiens, UniProt Q13882); assay: as above; assay type: biochemical; conditions: BRK(h)
[37] = biological target: protein kinases (Homo sapiens, UniProt P10721, V560G); assay: as above; assay type: biochemical; conditions: cKit(V560G)(h)
[38] = biological target: protein kinases (Homo sapiens, UniProt P11362); assay: as above; assay type: biochemical; conditions: FGFR1(h)
[39] = Body weight of tumor-bearing xenograft animals; assay type: in vivo; conditions: BC-PC3 xenograft mice, IV and IP dosing

Sequence of protein kinases (Homo sapiens, UniProt P07333) (P07333 20-972 limits assumed): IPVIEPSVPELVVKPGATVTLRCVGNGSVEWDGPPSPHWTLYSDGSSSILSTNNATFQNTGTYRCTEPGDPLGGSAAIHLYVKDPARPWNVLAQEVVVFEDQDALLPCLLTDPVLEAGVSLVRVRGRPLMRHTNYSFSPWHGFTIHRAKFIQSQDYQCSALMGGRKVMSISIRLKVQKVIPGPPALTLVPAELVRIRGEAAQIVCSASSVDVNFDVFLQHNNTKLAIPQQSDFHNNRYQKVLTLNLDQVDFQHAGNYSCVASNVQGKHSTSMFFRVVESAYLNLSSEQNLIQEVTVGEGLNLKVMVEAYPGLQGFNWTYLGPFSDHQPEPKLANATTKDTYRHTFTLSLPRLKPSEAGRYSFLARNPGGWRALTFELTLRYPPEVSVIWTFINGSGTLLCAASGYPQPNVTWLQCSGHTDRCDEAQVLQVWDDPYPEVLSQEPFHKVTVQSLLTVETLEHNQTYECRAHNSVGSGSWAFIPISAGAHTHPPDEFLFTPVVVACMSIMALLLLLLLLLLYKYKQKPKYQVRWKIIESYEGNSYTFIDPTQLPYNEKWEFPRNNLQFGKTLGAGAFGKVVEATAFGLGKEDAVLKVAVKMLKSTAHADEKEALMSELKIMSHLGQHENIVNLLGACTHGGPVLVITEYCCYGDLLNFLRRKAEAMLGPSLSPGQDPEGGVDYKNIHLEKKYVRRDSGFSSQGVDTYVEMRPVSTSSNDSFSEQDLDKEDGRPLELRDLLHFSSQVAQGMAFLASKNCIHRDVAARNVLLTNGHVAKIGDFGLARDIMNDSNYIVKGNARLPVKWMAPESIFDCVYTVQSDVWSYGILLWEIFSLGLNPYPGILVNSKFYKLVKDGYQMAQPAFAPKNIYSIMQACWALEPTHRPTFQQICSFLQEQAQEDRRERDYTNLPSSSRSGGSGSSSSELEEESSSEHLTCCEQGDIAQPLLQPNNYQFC
Sequence of protein kinases (Homo sapiens, UniProt P54760) (P54760 16-987 limits assumed): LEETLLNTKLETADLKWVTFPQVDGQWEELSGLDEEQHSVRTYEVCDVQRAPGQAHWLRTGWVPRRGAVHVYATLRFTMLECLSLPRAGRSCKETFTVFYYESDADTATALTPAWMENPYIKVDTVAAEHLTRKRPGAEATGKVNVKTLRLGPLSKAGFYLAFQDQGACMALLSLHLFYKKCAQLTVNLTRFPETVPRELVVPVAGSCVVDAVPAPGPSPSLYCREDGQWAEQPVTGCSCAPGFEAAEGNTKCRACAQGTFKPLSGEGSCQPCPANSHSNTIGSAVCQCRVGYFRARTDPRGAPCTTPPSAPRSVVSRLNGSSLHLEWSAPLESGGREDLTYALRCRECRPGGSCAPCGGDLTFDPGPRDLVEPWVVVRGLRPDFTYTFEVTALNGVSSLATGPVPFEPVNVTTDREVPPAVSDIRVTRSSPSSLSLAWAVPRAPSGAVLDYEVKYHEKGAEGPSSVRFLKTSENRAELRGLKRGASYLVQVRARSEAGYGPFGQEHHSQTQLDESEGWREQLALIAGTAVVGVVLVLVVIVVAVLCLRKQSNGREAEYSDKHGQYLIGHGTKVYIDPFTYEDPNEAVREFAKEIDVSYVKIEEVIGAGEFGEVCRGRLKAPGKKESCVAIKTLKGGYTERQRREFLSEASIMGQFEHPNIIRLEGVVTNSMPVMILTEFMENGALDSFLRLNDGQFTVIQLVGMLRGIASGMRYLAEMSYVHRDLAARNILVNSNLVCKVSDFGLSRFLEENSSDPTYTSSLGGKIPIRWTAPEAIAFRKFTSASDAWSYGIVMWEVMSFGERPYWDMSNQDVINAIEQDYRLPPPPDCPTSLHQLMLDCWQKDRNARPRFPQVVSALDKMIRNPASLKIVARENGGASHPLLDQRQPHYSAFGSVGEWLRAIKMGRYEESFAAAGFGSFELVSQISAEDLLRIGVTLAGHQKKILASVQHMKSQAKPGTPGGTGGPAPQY
Sequence of protein kinases (Homo sapiens, UniProt P12931) (P12931 2-536 limits assumed): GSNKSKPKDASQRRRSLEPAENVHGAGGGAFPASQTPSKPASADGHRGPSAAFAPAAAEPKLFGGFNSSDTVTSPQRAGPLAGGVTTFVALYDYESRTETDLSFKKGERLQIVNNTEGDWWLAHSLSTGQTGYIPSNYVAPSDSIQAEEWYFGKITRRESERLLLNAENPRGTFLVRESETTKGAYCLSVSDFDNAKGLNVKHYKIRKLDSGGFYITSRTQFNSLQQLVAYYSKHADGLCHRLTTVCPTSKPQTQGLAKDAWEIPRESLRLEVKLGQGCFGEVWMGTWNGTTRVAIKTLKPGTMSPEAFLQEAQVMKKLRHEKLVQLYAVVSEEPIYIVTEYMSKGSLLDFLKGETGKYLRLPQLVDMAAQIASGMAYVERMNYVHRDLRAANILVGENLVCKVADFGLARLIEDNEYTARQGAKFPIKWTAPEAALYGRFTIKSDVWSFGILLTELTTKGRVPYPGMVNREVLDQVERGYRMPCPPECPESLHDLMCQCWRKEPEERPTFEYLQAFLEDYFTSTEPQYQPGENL
Sequence of protein kinases (Homo sapiens, UniProt Q15303) (Q15303 26-1308 limits assumed): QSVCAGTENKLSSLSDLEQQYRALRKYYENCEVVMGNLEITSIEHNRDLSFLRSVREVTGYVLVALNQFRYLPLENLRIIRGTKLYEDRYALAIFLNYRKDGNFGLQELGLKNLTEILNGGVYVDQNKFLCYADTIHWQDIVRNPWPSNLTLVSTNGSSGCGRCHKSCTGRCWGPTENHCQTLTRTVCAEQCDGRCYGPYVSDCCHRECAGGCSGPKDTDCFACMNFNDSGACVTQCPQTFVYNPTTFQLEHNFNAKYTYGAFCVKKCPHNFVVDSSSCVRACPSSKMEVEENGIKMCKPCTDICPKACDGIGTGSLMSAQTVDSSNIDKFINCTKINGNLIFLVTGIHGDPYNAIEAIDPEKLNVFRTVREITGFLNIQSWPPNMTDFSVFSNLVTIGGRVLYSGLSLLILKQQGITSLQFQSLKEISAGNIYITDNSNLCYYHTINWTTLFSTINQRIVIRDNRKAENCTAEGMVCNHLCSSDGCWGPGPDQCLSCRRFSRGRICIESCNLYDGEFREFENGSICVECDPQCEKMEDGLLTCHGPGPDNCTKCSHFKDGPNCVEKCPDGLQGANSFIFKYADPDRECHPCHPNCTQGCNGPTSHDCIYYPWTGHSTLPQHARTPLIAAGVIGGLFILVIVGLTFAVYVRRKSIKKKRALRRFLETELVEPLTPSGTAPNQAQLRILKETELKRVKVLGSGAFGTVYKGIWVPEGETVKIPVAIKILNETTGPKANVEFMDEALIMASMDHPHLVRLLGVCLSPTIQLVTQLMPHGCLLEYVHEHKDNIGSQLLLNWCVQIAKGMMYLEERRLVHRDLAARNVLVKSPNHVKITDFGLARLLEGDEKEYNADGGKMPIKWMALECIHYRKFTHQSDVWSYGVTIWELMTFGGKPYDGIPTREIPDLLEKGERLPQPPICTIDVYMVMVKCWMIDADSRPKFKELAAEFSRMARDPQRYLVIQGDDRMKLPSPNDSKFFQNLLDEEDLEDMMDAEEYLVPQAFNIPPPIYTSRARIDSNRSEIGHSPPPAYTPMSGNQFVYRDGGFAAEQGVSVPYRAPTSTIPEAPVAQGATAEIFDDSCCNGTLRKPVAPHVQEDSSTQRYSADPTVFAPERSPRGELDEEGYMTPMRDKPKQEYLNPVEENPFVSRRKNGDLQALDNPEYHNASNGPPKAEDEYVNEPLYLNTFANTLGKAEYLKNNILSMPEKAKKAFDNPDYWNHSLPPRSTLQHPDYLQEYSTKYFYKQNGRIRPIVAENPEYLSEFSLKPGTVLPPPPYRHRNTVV
Sequence of protein kinases (Homo sapiens, UniProt P10721, D816H) (P10721 26-976 D816H limits assumed): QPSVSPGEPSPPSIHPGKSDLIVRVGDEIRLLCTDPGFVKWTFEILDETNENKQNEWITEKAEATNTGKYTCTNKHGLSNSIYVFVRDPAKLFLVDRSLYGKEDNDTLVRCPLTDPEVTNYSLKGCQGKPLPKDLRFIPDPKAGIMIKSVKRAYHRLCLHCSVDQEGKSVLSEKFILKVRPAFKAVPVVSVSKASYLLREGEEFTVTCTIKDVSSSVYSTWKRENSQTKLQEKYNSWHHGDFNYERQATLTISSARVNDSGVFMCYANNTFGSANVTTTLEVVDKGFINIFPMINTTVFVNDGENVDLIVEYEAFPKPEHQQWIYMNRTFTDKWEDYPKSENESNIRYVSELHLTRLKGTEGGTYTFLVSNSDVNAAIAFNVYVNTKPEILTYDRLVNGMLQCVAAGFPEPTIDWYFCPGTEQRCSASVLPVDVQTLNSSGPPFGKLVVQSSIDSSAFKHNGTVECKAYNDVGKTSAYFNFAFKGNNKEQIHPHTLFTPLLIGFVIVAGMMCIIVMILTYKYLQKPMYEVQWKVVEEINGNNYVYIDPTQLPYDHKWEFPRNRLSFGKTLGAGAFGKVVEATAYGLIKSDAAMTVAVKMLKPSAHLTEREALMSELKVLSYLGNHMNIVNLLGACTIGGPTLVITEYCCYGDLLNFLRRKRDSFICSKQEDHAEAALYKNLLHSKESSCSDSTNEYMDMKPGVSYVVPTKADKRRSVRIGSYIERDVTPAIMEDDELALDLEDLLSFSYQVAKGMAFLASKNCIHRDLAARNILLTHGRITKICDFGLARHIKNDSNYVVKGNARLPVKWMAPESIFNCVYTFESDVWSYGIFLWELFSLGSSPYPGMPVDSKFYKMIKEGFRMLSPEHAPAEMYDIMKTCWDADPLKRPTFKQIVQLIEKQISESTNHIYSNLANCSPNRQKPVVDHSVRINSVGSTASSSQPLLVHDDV
Sequence of protein kinases (Homo sapiens, UniProt P50613) (P50613 2-346 limits assumed): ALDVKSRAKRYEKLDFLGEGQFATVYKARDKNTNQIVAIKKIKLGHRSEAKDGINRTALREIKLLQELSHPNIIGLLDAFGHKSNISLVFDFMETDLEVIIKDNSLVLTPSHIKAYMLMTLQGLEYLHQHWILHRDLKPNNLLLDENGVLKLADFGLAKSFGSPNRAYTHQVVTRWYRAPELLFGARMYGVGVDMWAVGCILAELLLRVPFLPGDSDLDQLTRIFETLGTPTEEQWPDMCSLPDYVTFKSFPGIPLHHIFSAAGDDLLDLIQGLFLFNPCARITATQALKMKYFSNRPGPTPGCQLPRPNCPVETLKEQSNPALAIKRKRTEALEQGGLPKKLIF
Sequence of protein kinases (Homo sapiens, UniProt P10721, V560G) (P10721 26-976 V560G limits assumed): as the sequence (P10721 26-976 D816H limits assumed) above, with V535G, H791D counted along it

Q: For `C#Cc1cccc(Nc2nc3cc(C(=O)O)ccc3c3cncnc23)c1` [compound A2], which IC50 [1] is on record?
A: The IC50 was 189 nM.

Q: What about the activity at 0.5 µM [2] of the same molecule?
A: Its activity at 0.5 µM is 91%.

Q: And the activity at 0.5 µM [3]?
A: Its activity at 0.5 µM is 77%.

Q: What about the activity at 0.5 µM [4] of the same molecule?
A: The activity at 0.5 µM was 17%.

Q: And the activity at 0.5 µM [5]?
A: Its activity at 0.5 µM is 69%.

Q: And the activity at 0.5 µM [6]?
A: Its activity at 0.5 µM is 93%.

Q: What about the activity at 0.5 µM [7] of the same molecule?
A: The activity at 0.5 µM was -1%.

Q: And the activity at 0.5 µM [8]?
A: Its activity at 0.5 µM is 80%.

Q: What about the activity at 0.5 µM [9] of the same molecule?
A: The activity at 0.5 µM was 114%.

Q: And the activity at 0.5 µM [10]?
A: The activity at 0.5 µM was 62%.

Q: And the activity at 0.5 µM [11]?
A: Its activity at 0.5 µM is 104%.

Q: What about the activity at 0.5 µM [12] of the same molecule?
A: The activity at 0.5 µM was 67%.

Q: What about the activity at 0.5 µM [13] of the same molecule?
A: The activity at 0.5 µM was 109%.

Q: What about the activity at 0.5 µM [14] of the same molecule?
A: The activity at 0.5 µM was 77%.

Q: What about the activity at 0.5 µM [15] of the same molecule?
A: Its activity at 0.5 µM is 101%.

Q: What about the activity at 0.5 µM [16] of the same molecule?
A: Its activity at 0.5 µM is 112%.

Q: What about the activity at 0.5 µM [17] of the same molecule?
A: The activity at 0.5 µM was 110%.

Q: What about the activity at 0.5 µM [18] of the same molecule?
A: The activity at 0.5 µM was 97%.

Q: And the activity at 0.5 µM [19]?
A: Its activity at 0.5 µM is 106%.

Q: And the activity at 0.5 µM [20]?
A: Its activity at 0.5 µM is 52%.

Q: And the activity at 0.5 µM [21]?
A: Its activity at 0.5 µM is 50%.

Q: What about the activity at 0.5 µM [22] of the same molecule?
A: Its activity at 0.5 µM is 110%.

Q: What about the activity at 0.5 µM [23] of the same molecule?
A: The activity at 0.5 µM was 106%.

Q: What about the activity at 0.5 µM [24] of the same molecule?
A: The activity at 0.5 µM was 73%.

Q: And the activity at 0.5 µM [25]?
A: Its activity at 0.5 µM is 27%.

Q: What about the activity at 0.5 µM [26] of the same molecule?
A: The activity at 0.5 µM was 174%.

Q: What about the activity at 0.5 µM [27] of the same molecule?
A: Its activity at 0.5 µM is 144%.

Q: What about the activity at 0.5 µM [28] of the same molecule?
A: Its activity at 0.5 µM is 109%.

Q: And the activity at 0.5 µM [29]?
A: The activity at 0.5 µM was 94%.

Q: What about the activity at 0.5 µM [30] of the same molecule?
A: The activity at 0.5 µM was 101%.

Q: And the activity at 0.5 µM [31]?
A: Its activity at 0.5 µM is 101%.

Q: And the activity at 0.5 µM [32]?
A: The activity at 0.5 µM was 46%.

Q: What about the activity at 0.5 µM [33] of the same molecule?
A: The activity at 0.5 µM was 10%.

Q: And the activity at 0.5 µM [34]?
A: Its activity at 0.5 µM is 126%.

Q: And the activity at 0.5 µM [35]?
A: The activity at 0.5 µM was 110%.

Q: And the activity at 0.5 µM [36]?
A: Its activity at 0.5 µM is 110%.

Q: What about the activity at 0.5 µM [37] of the same molecule?
A: The activity at 0.5 µM was 111%.

Q: What about the activity at 0.5 µM [38] of the same molecule?
A: Its activity at 0.5 µM is 103%.

Q: What about the “Body weight (FIG. 4B)” value [39] of the same molecule?
A: Its value is “not significantly altering body weight”.
